Test results published in patent US20220325242A1, “IDH2 INHIBITION FOR PRODUCING T-CELLS AND B-CELLS WITH A MEMORY PHENOTYPE” (Universite de Lausanne, priority 2019, published 2022).

Key:
[1] = test system: OT1 CD8+ T-cells; experiment: Flow cytometry of surface activation and memory markers on in vitro cultured OT1 CD8+ T-cells; assay type: cell-based, mouse; conditions: 5 μM inhibitor day 0-3, flow cytometry on day 3 and 7
Experimental: Example 2. In vitro culture of splenocytes comprising CD8+ T-cells. OT1 splenocytes (as described in Example 1) were cultured for 3 days at a concentration of 10^6 cells per mL in RPMI medium (Gibco 61870-01) supplemented with 10% FCS, (Gibco 10270-106), 1% Penicillin/Streptomycin (P/S; Gibco 15070-063), 0.1% 13-mercaptoethanol, 1% HEPES (Gibco 15630-080), 1× Non-essential amino acids (Gibco 11140-035), 1% L-glutamine (Gibco 25030-081), 1 mM Sodium Pyruvate (Gibco 11360-039), 100 U/m1 hIL-2 (Glaxo-IMB) and 1 μg/ml ovalbumin N4 peptide (SIINFEKL). To evaluate the effects of IDH2 inhibition on T-cell differentiation, 5 μM of a small molecule IDH2 inhibitor (AG221 or AGI6780) or a DMSO solvent control was added during this 3-day culture period. At day 3, a fraction of the splenocytes was collected and the remaining cells were cultured for 4 additional days with 100 U/ml hIL-2 and 10 ng/ml hIL-7 (Peprotech 200-07) supplementation after washing out the inhibitors and the ovalbumine N4 peptide (FIG. 1). At day 3 and day 7, the activation and differentiation state of CD8+ T-cells was determined by gene expression analysis, flow cytometry and extracellular metabolic flux analyses (see Example 3).
Cells were incubated in a live/dead stain (Fixable aqua dead cell stain kit, Invitrogen) followed by an incubation with different antibody panels.
Antibody panel to determine the differentiation and activation state of in vitro cultured T-cells (see Examples 2 and 4): anti-CD8-PE-texas-Red, anti-CD62L-FITC, anti-CD127-PE, anti-CD27-PerCP-Cy5.5, anti-CD71-PE-Cy7, anti-CD44-APC-Cy7, anti-CD98-APC, anti-CD25-Pacific blue (BD Pharmingen and eBioscience, San Diego, Calif., USA). All those antigens are surface molecules. Cells were gated on living single CD8+ cells before analysis of activation and memory marker expression. For the unstained control, cells were stained with the live/dead stain and anti-CD8-PE-texas-Red.
Cells were acquired on LSR-II flow cytometers from the flow cytometry facility of UNIL and data were analyzed with FlowJo™ 10 software. Antibodies were purchased from BD Phamingen (San Diego, Calif., USA), eBioscience (San Diego, Calif., USA, and Biolegend (San Diego, Calif., USA).

[2] = test system: human CD8+ T-cells from umbilical cord blood; experiment: CD62L flow cytometry of human cord blood mononuclear cells (CBMC); assay type: cell-based; conditions: day 11; AG221 5 μM, MK2206 1 μM; DMSO control about 35%
Experimental: (§1) Methods: Mononuclear Cells were isolated from fresh umbilical cord blood on a Percoll Gradient (CBMCs). 10^4 CBMC's were seeded per well in a round bottom 96-well plate in RPMI with 10% human serum, and activated with (magnetic) αCD3/CD28 at a 1:2 cell:bead ratio and 300 U/ml rhIL-2, in the presence of 5 μM AG221 or DMSO, or 1 μM MK2206 (AKT inhibitor). After 11 days of culture, CD62L expression was analyzed by flow cytometry on a fraction of the cells (FIG. 15A). The other cells were washed 2 times and placed in a magnet to remove the inhibitors and the αCD3/CD28 beads. The cells were then rested for 4 hours before restimulating them for 4 hours with 1 ng/ml Phorbol 12-Myristate 13-Acetate (PMA, a PKC activator) and 50 μg/ml Ionomycin (a Ca^2+ ionophore, activating NF-KB and NFAT) in the presence of 50 μ/ml golgi inhibitor (Brefeldin A, BFA), allowing for the measurement of intracellular accumulation of different cytokines by flow cytometry.

[3] = test system: human CD8+ T-cells; experiment: Cytokine expression after PMA and Ionomycin restimulation of human CBMC-derived T-cells; assay type: cell-based; conditions: day 11 cells, inhibitors washed out, PMA and ionomycin 4 hours
Experimental: as §1

Structure (SMILES): O=C(Nc1cccc(C(F)(F)F)c1)Nc1cc(S(=O)(=O)NC2CC2)ccc1-c1ccsc1 [AGI6780, 1-[5-(cyclopropylsulfamoyl)-2-thiophen-3-ylphenyl]-3-[3-(trifluoromethyl)phenyl]urea]
- CD62L surface expression compared to DMSO [1]: increased
- other surface markers (CD25, CD44, CD71, CD98, CD27, CD127) compared to DMSO [1]: generally unchanged

Structure (SMILES): NC1(c2ccc(-c3nc4ccn5c(=O)[nH]nc5c4cc3-c3ccccc3)cc2)CCC1 [MK2206]
- CD8+ cells expressing CD62L [2]: about 75%
- TNF expression upon restimulation [3]: unaffected
- expression of effector cytokine IFNγ upon restimulation [3]: detrimental
- production of IL-2 upon restimulation [3]: unaltered
